In series [1] the test system is SARS-CoV-2 B.1.1.7 lineage. Briefly: microbe, parasite or virus in culture. Format: cell-based. Particulars: Severe acute respiratory syndrome coronavirus 2, 96 h; read-out: A549-dual_ACE2_TMPRSS2 (EC50).
Series [2] relates to human beta-coronavirus OC43. As to the kind of experiment: OC43 coronavirus antiviral assay in HeLa cells. Particulars: Betacoronavirus 1, 144 h, OC43, 6 days at 33° C., cell-titer-glo. Type of series: cell-based. The protocol:
(§1) The human beta-coronavirus OC43 was purchased from ATCC (Manassas, VA) and propagated using HCT-8 human colorectal epithelial cells (ATCC). HeLa human cervical epithelial cells (ATCC) were used as susceptible host cell lines and were cultured using EMEM media, supplemented with 10% fetal bovine serum (FBS), 1% (v/v) penicillin/streptomycin (P/S), 1% (v/v) HEPES and 1% (v/v) cellgro Glutagro™ supplement (all Corning, Manassas, VA) at 37° C. For the OC43 antiviral assay, 1.5×10^4 HeLa cells per well were plated in 100 μL complete media in white 96-well plates with clear bottoms at 37° C. for up to 24 h to facilitate attachment and allow cells to recover from seeding stresses. Next day, the cell culture medium was removed. Serially diluted compounds in 100 μL assay media (EMEM, 2% FBS, 1% P/S, 1% cellgro Glutagro™ supplement, 1% HEPES) were added to the cells and incubated for 4 h at 37° C. in a humidified 5% CO2 incubator. 100 μL of OC43 virus stock was diluted to a concentration known to produce optimal cytopathic effect, inducing 80-90% reduction in cell viability. 96-well plates were incubated for 6 days at 33° C.; each plate contains uninfected control wells as well as virus-infected wells that were not treated with compound. Cytotoxicity plates without the addition of OC43 virus were carried out in parallel. At the end of the incubation period, 100 μL cell culture supernatant was replaced with 100 μL cell-titer-glo reagent (Promega, Madison, WI) and incubated for at least 10 min at rt prior to measuring luminescence. Luminescence was measured on a Perkin Elmer (Waltham, MA) Envision plate reader. Antiviral % inhibition was calculated as follows: [(Compound treated cells infected sample)−(no compound infected control)]/[(Uninfected control)−(no compound infected control)]*100; Using GraphPad (San Diego, CA) prism software version 8.3.1, the antiviral dose-response plot was generated as a sigmoidal fit, log(inhibitor) vs response-variable slope (four parameters) model and the EC50 was calculated which is the predicted compound concentration corresponding to a 50% inhibition of the viral cytopathic effect.
(§2) Table 2 indicates related EC50 and CC50 values for the tested compounds ‘A’ indicates an EC50<100 nM, ‘B’ indicates an EC50 of ≥100 nM and <1000 nM, ‘C’ indicates an EC50≥1000 nM and <10000 nM and ‘D’ indicates an EC50≥10000 nM and <100000 nM. For CC50, the values are reported in micromolar (M), ‘A’ indicates a CC50≥10000 nM and ‘B’ indicates a CC50≥1 μM and <10 μM.

Another series in a line: in vitro. Particulars: human.
A further series concerns the target T1, human cathepsin L (Homo sapiens, UniProt P07711).
T1 construct: purchased R&D Systems
Briefly: Cathepsin L assay. Format: biochemical. The note with it: 10 pM human cathepsin L, Z-FR-AMC 2 μM. The protocol:
For the cathepsin L assay, 10 pM of human cathepsin L (R&D Systems; Minneapolis, MN) was preincubated for 30 mins with test compounds. Reactions were initiated by the addition of a peptide substrate Z-FR-AMC (final concentration 2 μM, Anaspec; Fremont, CA). Fluorescence was measured at 2-minute intervals for 30 mins using a 355/460 excitation/emission filter module on an Envision plate reader (Perkin Elmer; Waltham, MA). The IC50 values were calculated for each assay by fitting the curves using a four-parameter equation in GraphPad Prism.
Table 4 indicates related IC50 values for the tested compounds where ‘A’ indicates an IC50≥10000 nM, ‘B’ indicates an IC50 of ≥1000 nM and <10000 nM, ‘C’ indicates an IC50; ≥100 nM and <1000 nM, ‘D’ indicates an IC50<100 nM.

The nature of series [3]: Cytotoxicity in HeLa cells without OC43 virus. Type of series: cell-based. Particulars: human, HeLa cells (uninfected), in parallel. The protocol:
as §1, §2

For another series, the target named is T2, SARS-Cov-2 3CLpro (Severe acute respiratory syndrome coronavirus 2, UniProt P0DTD1).
T2 construct: 3CLpro was added using a Multidrop Combi
Briefly: SARS-Cov-2 3CLpro protease assay (SAMDI-MS). Type of series: biochemical. The note with it: 30 mins preincubation, duplex peptide substrates; read-out: SARS-Cov-2 (3CLpro IC50).

The next series addresses 3Clpro (Severe acute respiratory syndrome coronavirus 2, UniProt P0DTD1). The note with it: cited from earlier work.
For series [4], the system named is SARS-CoV-2. The note with it: A549-ACE2 expressing TMPRSS2; cited from earlier work.
Series [5] concerns SARS-CoV-2. Particulars: VeroE6, A549-ACE2 and/or HeLa-ACE2; cited from earlier work.

The source of these data is patent publication US20240182444A1, “ANTI-VIRAL COMPOUNDS” (Aligos Therapeutics, Inc., priority 2022, published 2024).

T1 sequence (P07711 114-333): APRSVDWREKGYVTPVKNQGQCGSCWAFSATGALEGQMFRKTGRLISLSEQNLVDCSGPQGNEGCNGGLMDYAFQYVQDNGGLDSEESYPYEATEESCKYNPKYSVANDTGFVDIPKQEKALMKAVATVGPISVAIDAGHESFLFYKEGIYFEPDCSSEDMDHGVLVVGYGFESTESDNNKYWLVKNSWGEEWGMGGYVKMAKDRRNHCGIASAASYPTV

As usually defined, the EC50 is the concentration that produces a half-maximal response. The IC50 is the concentration that gives 50% inhibition. `CC(C)(C)[C@H](NC(=O)C(F)(F)F)C(=O)N1C[C@H]2[C@@H]([C@H]1C(=O)NC(C#N)c1cnc3ccccn13)[C@H]1C=C[C@@H]2C1` (stereo partly drawn) [Compound 2, (1S,3aR,4S,7R,7aS)—N-(cyano(imidazo[1,2-a]pyridin-3-yl)methyl)-2-((S)-3,3-dimethyl-2-(2,2,2-trifluoroacetamido)butanoyl)-2,3,3a,4,7,7a-hexahydro-1H-4,7-methanoisoindole-1-carboxamide]: the EC50 in [1] and in series [2] was 0.1 to 1 µM in each case. In “in vitro”, the CC50 is > 1 µM. The IC50 against human cathepsin L is ≥ 10 µM; on SARS-Cov-2 3CLpro, < 0.02 µM. Also, the CC50 at 6 days in series [3] was ≥ 10 µM.

As for `CN1CCN(C(=O)N[C@@H](Cc2ccccc2)C(=O)N[C@H](/C=C/S(=O)(=O)c2ccccc2)CCc2ccccc2)CC1` [Compound K117777], on 3Clpro, the “inhibitory effect on the 3Clpro” value is listed as “lacks an inhibitory effect”. Moreover, in the series on SARS-CoV-2 [4], the “antiviral effect when TMPRSS2 was expressed” value is reported as “abolished”. Further, the “inhibition of SARS-CoV-2” value in the series on SARS-CoV-2 [5] was “potent inhibition”.
